This is an account of results in patent US11980620B2, “Compounds and methods for treatment of Diamond Blackfan anemia” (THE CHILDREN'S MEDICAL CENTER CORPORATION, priority 2017, dated 2024).

The test system of the experiment is mice with irradiation-induced anemia. The experiment is described as follows: Irradiation-induced anemia in mice, peripheral blood RBC counts and hematocrit. The format is in vivo, mouse. Particulars: 10 mg/kg, 3 weeks, sub-lethally irradiated mice. The protocol: (FIG. 10A) SMER28 rescues RBC output in rps29^+/− zebrafish embryos. The level of hemoglobin in the yolk sac was visualized 40hpf with benzidine staining. Images are representative of the proportion of embryos indicated (of total counted). (FIG. 10B) Quantitation of SMER28 rescue for a range of 0.1-1 μM, with embryos grouped by high, medium, and low levels of hemoglobin staining. (FIG. 10C) Peripheral blood (PB) RBC counts and hematocrit in mice with irradiation-induced anemia. Mice were treated with the PEG400-based vehicle containing DMSO (VEH) (n=11), 1 mg/kg Dex (sodium-phosphate) (n=13), or 10 mg/kg SMER28 (n=9) for 3 weeks, bled, and assessed. Data are combined from 3 independent experiments. (FIG. 10D) Erythroid cells as proportion of the human graft in mice transplanted with DBA CD34-5F progenitors, and treated as in (FIG. 1c). (FIG. 10E) Levels of human engraftment in NSG mouse bone marrow (BM) transplanted with CB CD34^+ cells. Mice were treated with DMSO plus vehicle (VEH) (n=10), 1 mg/kg Dex (sodium-phosphate) (n=6), or 2 mg/kg SMER28 (n=11) for 4 weeks. (FIG. 10F) The proportion of erythroid, myeloid, and lymphoid (B cells) lineages within the human graft in vehicle- and SMER28-treated mice transplanted with CB CD34^+ cells. Only the effect on the erythroid lineage was significant. Data in FIGS. 10E-10G are pooled from 2 independent experiments. […]

On to `C=CCNc1ncnc2ccc(Br)cc12` [SMER28, 6-Bromo-N-2-propenyl-4-quinazolinam], for which the hematocrit vs vehicle result (p=0.04) is listed as “modestly elevated”. Moreover, under “p=0.07”, the “peripheral blood RBC counts vs vehicle” value is “modestly elevated”.
